In ChEMBL document CHEMBL1649467, “Impact of human serum albumin on oritavancin in vitro activity against enterococci” (Antimicrob Agents Chemother, 2009):
Values after ≈ are worked out from the molar mass of the structure shown.

What was measured:
[1] = test system: Enterococcus faecium; assay: Antimicrobial activity against vancomycin-resistant Enterococcus faecium 1059060 by broth dilution method; assay type: functional
[2] = test system: Enterococcus faecium; assay: Antimicrobial activity against vancomycin-resistant Enterococcus faecium 1119175 by broth dilution method; assay type: functional
[3] = test system: Enterococcus faecalis; assay: Antimicrobial activity against vancomycin-resistant Enterococcus faecalis ATCC 51299 by broth dilution method in presence of 4% HSA; assay type: functional
[4] = test system: Enterococcus faecalis; assay: Antimicrobial activity against vancomycin-resistant Enterococcus faecalis ATCC 51299 by broth dilution method; assay type: functional
[5] = test system: Enterococcus faecium; assay: Selectivity ratio of MIC for Enterococcus faecium 1119175 in presence of 4% HSA to MIC for Enterococcus faecium 1119175; assay type: functional
[6] = test system: Enterococcus faecium; assay: Selectivity ratio of MIC for Enterococcus faecium 1059060 in presence of 4% HSA to MIC for Enterococcus faecium 1059060; assay type: functional
[7] = Free fraction in healthy human male at 4 mg/kg, iv every 24 hrs by LC/MS/MS analysis; assay type: ADME, organism-based; parameters: dose 4 mg/kg, route intravenous; settings: in vivo
[8] = test system: Enterococcus faecalis; assay: Selectivity ratio of MIC for Enterococcus faecalis ATCC 51299 in presence of 4% HSA to MIC for Enterococcus faecalis 51299; assay type: functional
[9] = test system: Enterococcus faecalis; assay: Antimicrobial activity against vancomycin-resistant Enterococcus faecalis 1058946 by broth dilution method; assay type: functional
[10] = test system: Enterococcus faecalis; assay: Antimicrobial activity against vancomycin-susceptible Enterococcus faecalis ATCC 29212 by broth dilution method; assay type: functional
[11] = test system: Enterococcus faecalis; assay: Bactericidal activity against vancomycin-resistant Enterococcus faecalis 1058946 expressing vanA gene assessed as change in bacterial count at 64 ug/ml by time-kill assay; assay type: functional
[12] = test system: Enterococcus faecium; assay: Bactericidal activity against vancomycin-resistant Enterococcus faecium 1059060 expressing vanA gene assessed as change in bacterial count at 64 ug/ml by time-kill assay; assay type: functional
[13] = test system: Enterococcus faecium; assay: Bactericidal activity against vancomycin-resistant Enterococcus faecium 1059060 expressing vanA gene assessed as change in bacterial count at 4 ug/ml by time-kill assay; assay type: functional
[14] = test system: Enterococcus faecalis; assay: Bactericidal activity against vancomycin-susceptible Enterococcus faecalis ATCC 29212 assessed as change in bacterial count at 4 ug/ml by time-kill assay; assay type: functional
[15] = test system: Enterococcus faecalis; assay: Selectivity ratio of MIC for Enterococcus faecalis ATCC 29212 in presence of 4% HSA to MIC for Enterococcus faecalis ATCC 29212; assay type: functional
[16] = test system: Enterococcus faecium; assay: Bactericidal activity against vancomycin-resistant Enterococcus faecium 1119175 expressing vanB gene assessed as change in bacterial count at 4 ug/ml by time-kill assay; assay type: functional
[17] = Cmax in healthy human male at 4 mg/kg, iv every 24 hrs by LC/MS/MS analysis; assay type: ADME, organism-based; parameters: dose 4 mg/kg, route intravenous; settings: in vivo
[18] = test system: Enterococcus faecalis; assay: Bactericidal activity against vancomycin-resistant Enterococcus faecalis ATCC 51299 expressing vanB gene assessed as change in bacterial count at 4 ug/ml by time-kill assay; assay type: functional
[19] = test system: Enterococcus faecalis; assay: Selectivity ratio of MIC for Enterococcus faecalis 1058946 in presence of 4% HSA to MIC for Enterococcus faecalis 1058946; assay type: functional
[20] = test system: Enterococcus faecium; assay: Bactericidal activity against vancomycin-resistant Enterococcus faecium 1119175 expressing vanB gene assessed as change in bacterial count at 64 ug/ml by time-kill assay; assay type: functional
[21] = test system: Enterococcus faecium; assay: Antimicrobial activity against vancomycin-resistant Enterococcus faecium ATCC 51559 by broth dilution method; assay type: functional
[22] = test system: Enterococcus faecium; assay: Antimicrobial activity against vancomycin-resistant Enterococcus faecium 1059060 by broth dilution method in presence of 4% HSA; assay type: functional
[23] = test system: Enterococcus faecium; assay: Antimicrobial activity against vancomycin-resistant Enterococcus faecium 1119175 by broth dilution method in presence of 4% HSA; assay type: functional
[24] = test system: Enterococcus faecium; assay: Bactericidal activity against vancomycin-resistant Enterococcus faecium ATCC 51559 expressing vanA gene assessed as change in bacterial count at 64 ug/ml by time-kill assay; assay type: functional
[25] = test system: Enterococcus faecalis; assay: Antimicrobial activity against vancomycin-susceptible Enterococcus faecalis ATCC 29212 by broth dilution method in presence of 4% HSA; assay type: functional
[26] = test system: Enterococcus faecalis; assay: Antimicrobial activity against vancomycin-resistant Enterococcus faecalis 1058946 by broth dilution method in presence of 4% HSA; assay type: functional
[27] = test system: Enterococcus faecium; assay: Selectivity ratio of MIC for Enterococcus faecium ATCC 51559 in presence of 4% HSA to MIC for Enterococcus faecium ATCC 51559; assay type: functional
[28] = test system: Enterococcus faecium; assay: Antimicrobial activity against vancomycin-resistant Enterococcus faecium ATCC 51559 by broth dilution method in presence of 4% HAS; assay type: functional
[29] = test system: Enterococcus faecalis; assay: Bactericidal activity against vancomycin-susceptible Enterococcus faecalis ATCC 29212 assessed as change in bacterial count at 64 ug/ml by time-kill assay; assay type: functional
[30] = test system: Enterococcus faecalis; assay: Bactericidal activity against vancomycin-resistant Enterococcus faecalis ATCC 51299 expressing vanB gene assessed as change in bacterial count at 64 ug/ml by time-kill assay; assay type: functional
[31] = test system: Enterococcus faecium; assay: Bactericidal activity against vancomycin-resistant Enterococcus faecium ATCC 51559 expressing vanA gene assessed as change in bacterial count at 4 ug/ml by time-kill assay; assay type: functional
[32] = test system: Enterococcus faecalis; assay: Bactericidal activity against vancomycin-resistant Enterococcus faecalis 1058946 expressing vanA gene assessed as change in bacterial count at 4 ug/ml by time-kill assay; assay type: functional
[33] = test system: Enterococcus faecalis; assay: Bactericidal activity against vancomycin-resistant Enterococcus faecalis 1058946 expressing vanA gene assessed as change in bacterial count at 16 ug/ml by time-kill assay; assay type: functional
[34] = test system: Enterococcus faecalis; assay: Bactericidal activity against vancomycin-susceptible Enterococcus faecalis ATCC 29212 assessed as change in bacterial count at 16 ug/ml by time-kill assay; assay type: functional
[35] = test system: Enterococcus faecium; assay: Bactericidal activity against vancomycin-resistant Enterococcus faecium ATCC 51559 expressing vanA gene assessed as change in bacterial count at 16 ug/ml by time-kill assay; assay type: functional
[36] = test system: Enterococcus faecium; assay: Bactericidal activity against vancomycin-resistant Enterococcus faecium 1059060 expressing vanA gene assessed as change in bacterial count at 16 ug/ml by time-kill assay; assay type: functional
[37] = Cmax in healthy human male at 600 mg, po every 12 hrs by LC/MS/MS analysis; assay type: ADME, organism-based; parameters: dose 600 mg, route oral; settings: in vivo
[38] = test system: Enterococcus faecium; assay: Bactericidal activity against vancomycin-resistant Enterococcus faecium 1119175 expressing vanB gene assessed as change in bacterial count at 16 ug/ml by time-kill assay; assay type: functional
[39] = test system: Enterococcus faecalis; assay: Bactericidal activity against vancomycin-resistant Enterococcus faecalis ATCC 51299 expressing vanB gene assessed as change in bacterial count at 16 ug/ml by time-kill assay; assay type: functional
[40] = Free fraction in healthy human male at 1000 mg, iv every 12 hrs by LC/MS/MS analysis; assay type: ADME, organism-based; settings: in vivo
[41] = Cmax in healthy human male at 1000 mg, iv every 12 hrs by LC/MS/MS analysis; assay type: ADME, organism-based; parameters: dose 1000 mg, route intravenous; settings: in vivo

Row | Structure (SMILES) | MIC [1] [µg/mL] | MIC [2] [µg/mL] | MIC [3] [µg/mL] | MIC [4] [µg/mL] | MIC [9] [µg/mL] | MIC [10] [µg/mL] | log10CFU/ml [11] | log10CFU/ml [12] | log10CFU/ml [13] | log10CFU/ml [14] | log10CFU/ml [16] | log10CFU/ml [18] | log10CFU/ml [20] | MIC [21] [µg/mL] | MIC [22] [µg/mL] | MIC [23] [µg/mL] | log10CFU/ml [24] | MIC [25] [µg/mL] | MIC [26] [µg/mL] | MIC [28] [µg/mL] | also measured
1 | CCCCCCCCCC(=O)N[C@@H](Cc1c[nH]c2ccccc12)C(=O)N[C@H](CC(N)=O)C(=O)N[C@@H](CC(=O)O)C(=O)N[C@@H]1C(=O)NCC(=O)N[C@@H](CCCN)C(=O)N[C@@H](CC(=O)O)C(=O)N[C@H](C)C(=O)N[C@@H](CC(=O)O)C(=O)NCC(=O)N[C@H](CO)C(=O)N[C@@H]([C@H](C)CC(=O)O)C(=O)N[C@@H](CC(=O)c2ccccc2N)C(=O)O[C@@H]1C | 1 (≈ 0.617 µM) | 4 (≈ 2.47 µM) | 32 | 2 (≈ 1.23 µM) | 2 (≈ 1.23 µM) | 2 (≈ 1.23 µM) | -0.4 | -0.78 | -0.54 | 1.9 | 2.3 | 2.3 | 1.5 | 2 (≈ 1.23 µM) | 8 | 64 | 1.4 | 32 | 16 | 32 | Ratio [5]: 16; Ratio [6]: 8; fraction unbound at 24 h [7]: 0.08; Ratio [8]: 16; Ratio [15]: 16; Cmax [17]: 64 µg/mL; Ratio [19]: 8; Ratio [27]: 16; log10CFU/ml [29]: 0.26; log10CFU/ml [30]: 1.4; log10CFU/ml [31]: 2.4; log10CFU/ml [32]: 2.5
2 | CC(=O)NC[C@H]1CN(c2ccc(N3CCOCC3)c(F)c2)C(=O)O1 [LINEZOLID] | 1 (≈ 2.96 µM) | 2 (≈ 5.93 µM) |  |  |  |  |  |  | -0.35 | 0.13 | 0.2 | -0.5 |  | 1 (≈ 2.96 µM) | 1 | 2 |  |  |  | 2 | log10CFU/ml [33]: 0.08; log10CFU/ml [34]: 0.11; log10CFU/ml [35]: -2; log10CFU/ml [36]: -0.42; Cmax [37]: 16 µg/mL; log10CFU/ml [38]: -0.72; log10CFU/ml [39]: -0.35; log10CFU/ml [31]: -0.63; log10CFU/ml [32]: 0.78
3 | CN[C@H](CC(C)C)C(=O)N[C@H]1C(=O)N[C@@H](CC(N)=O)C(=O)N[C@H]2C(=O)N[C@H]3C(=O)N[C@H](C(=O)N[C@H](C(=O)O)c4cc(O)cc(O)c4-c4cc3ccc4O)[C@H](O)c3ccc(c(Cl)c3)Oc3cc2cc(c3O[C@@H]2O[C@H](CO)[C@@H](O)[C@H](O)[C@H]2O[C@H]2C[C@](C)(N)[C@H](O)[C@H](C)O2)Oc2ccc(cc2Cl)[C@H]1O [VANCOMYCIN] | > 128 | > 128 | 128 | 128 (≈ 88.3 µM) | > 128 | 2 (≈ 1.38 µM) | 2.3 | 2.2 |  |  |  |  | 1.2 | > 128 | > 128 | > 128 | 2.2 | 2 | > 128 | > 128 | log10CFU/ml [33]: 2.5; log10CFU/ml [34]: -1.7; log10CFU/ml [35]: 2.6; fraction unbound at 12 h [40]: 0.54; log10CFU/ml [36]: 2.3; log10CFU/ml [38]: 1.1; Cmax [41]: 64 µg/mL; log10CFU/ml [39]: 2.3; log10CFU/ml [29]: -0.76; log10CFU/ml [30]: 0.85
